We go through 18 compounds from US20240190849A1, “AMINOPYRIMIDINE COMPOUNDS AND METHODS OF THEIR USE” (TYRA BIOSCIENCES, INC., priority 2021, published 2024).

Conditions in all cases: FGFR binding data
In one assay the target is T1, FGFR1 (Homo sapiens, UniProt P11362).
T1 construct: made in house; host or cells: E. coli derived from BL21, infected with T7 phage
Kind of assay: Kinase binding assay (kinase-tagged T7 phage, affinity beads, qPCR readout), FGFR1. As to the method:
(§1) Kinase-tagged T7 phage strains were prepared in an E. coli host derived from the BL21 strain. E. coli were grown to log-phase and infected with T7 phage and incubated with shaking at 32° C. until lysis. The lysates were centrifuged and filtered to remove cell debris. Streptavidin-coated magnetic beads were treated with biotinylated small molecule ligands for 30 minutes at room temperature to generate affinity resins for kinase assays. The liganded beads were blocked with excess biotin and washed with blocking buffer SeaBlock (Pierce), 1% BSA, 0.05% Tween 20, 1 mM DTT to remove unbound ligand and to reduce non-specific binding. Binding reactions were assembled by combining kinases, liganded affinity beads, and test compounds in 1× binding buffer (20% SeaBlock, 0.17×PBS, 0.05% Tween 20, 6 mM DTT).
(§2) Test compounds were prepared as 111× stocks in 100% DMSO. Kds were determined using an 11-point 3-fold compound dilution series with three DMSO control points. All compounds for Kd measurements are distributed by acoustic transfer (non-contact dispensing) in 100% DMSO. The compounds were then diluted directly into the assays such that the final concentration of DMSO was 0.9%. All reactions performed in polypropylene 384-well plate. Each was a final volume of 0.02 ml. The assay plates were incubated at room temperature with shaking for 1 hour and the affinity beads were washed with wash buffer (1×PBS, 0.05% Tween 20). The beads were then re-suspended in elution buffer (1×PBS, 0.05% Tween 20, 0.5 μM non-biotinylated affinity ligand) and incubated at room temperature with shaking for 30 minutes. The kinase concentration in the eluates was measured by qPCR.
(§3) Binding constants were calculated with a standard dose-response curve using the Hill equation: […]
(§4) The Hill Slope was set to −1. Curves were fitted using a non-linear least square fit with the Levenberg-Marquardt algorithm.

In another assay the target is T2, FGFR3 (Homo sapiens, UniProt P22607).
T2 construct: made in house; host or cells: E. coli derived from BL21, infected with T7 phage
T2 sequence (P22607 23-806): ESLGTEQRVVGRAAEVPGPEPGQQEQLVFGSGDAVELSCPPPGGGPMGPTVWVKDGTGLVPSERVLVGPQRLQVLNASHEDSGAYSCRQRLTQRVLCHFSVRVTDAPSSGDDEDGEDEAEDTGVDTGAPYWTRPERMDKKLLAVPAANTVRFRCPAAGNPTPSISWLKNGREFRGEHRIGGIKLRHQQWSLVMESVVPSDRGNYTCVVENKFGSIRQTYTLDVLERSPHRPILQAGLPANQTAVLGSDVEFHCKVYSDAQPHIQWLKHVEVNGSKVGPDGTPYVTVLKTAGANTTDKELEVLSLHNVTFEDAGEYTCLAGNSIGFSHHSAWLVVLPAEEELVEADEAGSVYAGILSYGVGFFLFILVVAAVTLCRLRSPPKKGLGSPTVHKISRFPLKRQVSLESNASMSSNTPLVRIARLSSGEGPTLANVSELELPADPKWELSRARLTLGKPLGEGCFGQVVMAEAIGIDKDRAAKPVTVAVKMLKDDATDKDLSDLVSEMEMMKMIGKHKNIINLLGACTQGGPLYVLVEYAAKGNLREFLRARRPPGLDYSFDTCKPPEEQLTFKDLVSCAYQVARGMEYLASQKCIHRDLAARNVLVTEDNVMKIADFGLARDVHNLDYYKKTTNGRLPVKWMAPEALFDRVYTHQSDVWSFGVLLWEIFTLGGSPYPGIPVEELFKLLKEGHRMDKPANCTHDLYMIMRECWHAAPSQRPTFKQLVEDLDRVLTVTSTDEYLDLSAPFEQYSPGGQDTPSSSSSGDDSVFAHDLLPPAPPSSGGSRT
Put plainly: Kinase binding assay (kinase-tagged T7 phage, affinity beads, qPCR readout), FGFR3. As to the method: as §1, §2, §3, §4

A further assay deals with T3, FGFR3 (V555M) (Homo sapiens, UniProt P22607, V555M).
T3 construct: made in house; host or cells: E. coli derived from BL21, infected with T7 phage
T3 sequence (P22607 23-806 V555M): as the sequence (P22607 23-806) above, with V533M counted along it
Put plainly: Kinase binding assay (kinase-tagged T7 phage, affinity beads, qPCR readout), FGFR3 (V555M). As to the method: as §1, §2, §3, §4
A general note: In qPCR the cycle at which signal appears reflects the starting amount.

A further assay deals with T4, FGFR2 (Homo sapiens, UniProt P21802).
T4 construct: made in house; host or cells: E. coli derived from BL21, infected with T7 phage
T4 sequence (P21802 22-821): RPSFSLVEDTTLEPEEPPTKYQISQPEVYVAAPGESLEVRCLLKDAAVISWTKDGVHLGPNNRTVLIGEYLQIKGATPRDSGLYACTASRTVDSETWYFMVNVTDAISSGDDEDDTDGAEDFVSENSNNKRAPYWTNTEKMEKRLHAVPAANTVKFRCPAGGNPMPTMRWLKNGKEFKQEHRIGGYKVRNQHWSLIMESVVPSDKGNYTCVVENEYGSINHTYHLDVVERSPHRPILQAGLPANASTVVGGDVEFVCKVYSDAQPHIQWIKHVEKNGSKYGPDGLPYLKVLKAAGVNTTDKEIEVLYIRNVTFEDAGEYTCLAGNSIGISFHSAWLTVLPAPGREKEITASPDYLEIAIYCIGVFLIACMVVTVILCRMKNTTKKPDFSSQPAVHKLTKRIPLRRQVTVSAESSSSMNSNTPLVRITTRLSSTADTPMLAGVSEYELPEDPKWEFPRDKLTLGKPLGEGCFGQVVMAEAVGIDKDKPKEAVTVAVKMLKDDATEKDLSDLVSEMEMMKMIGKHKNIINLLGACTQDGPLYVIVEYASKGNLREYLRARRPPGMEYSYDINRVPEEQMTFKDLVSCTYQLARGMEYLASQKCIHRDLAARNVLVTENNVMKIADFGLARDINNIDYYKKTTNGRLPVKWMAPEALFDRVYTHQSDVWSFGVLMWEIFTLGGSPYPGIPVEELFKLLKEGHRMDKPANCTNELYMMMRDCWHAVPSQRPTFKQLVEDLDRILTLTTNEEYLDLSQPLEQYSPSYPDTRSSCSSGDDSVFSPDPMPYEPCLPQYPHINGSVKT
Put plainly: Kinase binding assay (kinase-tagged T7 phage, affinity beads, qPCR readout), FGFR2. The protocol:
as §1, §2, §3, §4

T1 sequence (P11362 22-822): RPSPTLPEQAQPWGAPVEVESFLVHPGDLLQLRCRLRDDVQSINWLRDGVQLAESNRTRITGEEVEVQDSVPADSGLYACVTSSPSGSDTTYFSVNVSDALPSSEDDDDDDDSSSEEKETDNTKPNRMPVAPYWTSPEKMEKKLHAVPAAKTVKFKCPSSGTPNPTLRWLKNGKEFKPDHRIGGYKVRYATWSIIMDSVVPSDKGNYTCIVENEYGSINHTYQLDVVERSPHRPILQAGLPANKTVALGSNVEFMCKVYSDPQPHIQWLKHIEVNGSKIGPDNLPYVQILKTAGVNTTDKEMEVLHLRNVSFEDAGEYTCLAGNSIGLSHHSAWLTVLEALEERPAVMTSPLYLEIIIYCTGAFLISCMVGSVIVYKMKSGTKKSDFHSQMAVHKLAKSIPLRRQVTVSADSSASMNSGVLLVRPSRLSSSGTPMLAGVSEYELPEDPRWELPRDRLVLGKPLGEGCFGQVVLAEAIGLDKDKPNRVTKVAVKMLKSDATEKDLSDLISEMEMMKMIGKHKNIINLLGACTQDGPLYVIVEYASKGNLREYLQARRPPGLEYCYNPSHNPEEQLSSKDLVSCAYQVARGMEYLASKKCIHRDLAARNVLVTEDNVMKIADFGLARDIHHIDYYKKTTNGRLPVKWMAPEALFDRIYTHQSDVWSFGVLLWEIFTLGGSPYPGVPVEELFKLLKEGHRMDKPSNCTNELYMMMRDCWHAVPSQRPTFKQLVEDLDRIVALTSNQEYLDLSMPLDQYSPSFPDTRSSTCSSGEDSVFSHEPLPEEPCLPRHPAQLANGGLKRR

One may read the Kd as a measure of binding affinity in units of concentration. In the case of `C=CC(=O)Nc1ccc2c(ccn2-c2nc(Nc3ccc(N(C)CCN(C)C)cc3)ncc2Cl)c1` [Example 3, N-[1-[5-chloro-2-[4-[2-(dimethylamino)ethyl-methyl-amino]anilino]pyrimidin-4-yl]indol-5-yl]prop-2-enamide], the dissociation constant (Kd) on FGFR1, at FGFR3, on FGFR3 (V555M) and on FGFR2 was 0.1 to 100 nM each time.

For the compound `CCC(=O)Nc1ccc2c(ccn2-c2nc(Nc3ccc(N4CCN(C)CC4)cc3)ncc2Cl)c1` [Example 4, N-[1-[5-chloro-2-[4-(4-methylpiperazin-1-yl)anilino]pyrimidin-4-yl]indol-5-yl]propanamide], the Kd at FGFR1 was 0.1 to 100 nM; at FGFR3 it was 100 to 250 nM; on FGFR3 (V555M) it was 0.1 to 100 nM; at FGFR2 it was 250 to 1000 nM.

As to `C=CC(=O)Nc1ccc2c(ccn2-c2nc(Nc3cccc(OCCN4CCOCC4)c3)ncc2C)c1C` [Example 5, N-[4-methyl-1-[5-methyl-2-[3-(2-morpholinoethoxy)anilino]pyrimidin-4-yl]indol-5-yl]prop-2-enamide], the equilibrium dissociation constant (Kd) at FGFR1 lay within 250 to 1000 nM; on FGFR3, 100 to 250 nM; on FGFR3 (V555M), 0.1 to 100 nM; on FGFR2, 100 to 250 nM.

`C=CC(=O)Nc1ccc2c(ccn2-c2nc(Nc3cccc(OCCN4CCOCC4)c3)ncc2Cl)c1` [Example 6, N-[1-[5-chloro-2-[3-(2-morpholinoethoxy)anilino]pyrimidin-4-yl]indol-5-yl]prop-2-enamide]: the Kd at FGFR1 lay in the range of 250 to 1000 nM; at FGFR3 it was 250 to 1000 nM; at FGFR3 (V555M), 0.1 to 100 nM; at FGFR2 it was 250 to 1000 nM.

`C=CC(=O)Nc1ccc2c(ccn2-c2nc(Nc3ccc(N4CCOCC4)cc3OCC)ncc2Cl)c1` [Example 11, N-[1-[5-chloro-2-(2-ethoxy-4-morpholino-anilino)pyrimidin-4-yl]indol-5-yl]prop-2-enamide]: the Kd on FGFR1, at FGFR3, at FGFR3 (V555M) and at FGFR2 was > 1000 nM in each case.

Take `C=CC(=O)Nc1ccc2c(ccn2-c2nc(Nc3cn(C)nc3OC)ncc2Cl)c1` [Example 12, N-[1-[5-chloro-2-[(3-methoxy-1-methyl-pyrazol-4-yl)amino]-pyrimidin-4-yl]indol-5-yl]prop-2-enamide]: the Kd was 250 to 1000 nM at FGFR1, 100 to 250 nM on FGFR3, 0.1 to 100 nM at FGFR3 (V555M) and > 1000 nM at FGFR2.

Regarding `C=CC(=O)Nc1ccc2c(ccn2-c2nc(Nc3ccccc3OCCN3CCOCC3)ncc2Cl)c1` [Example 13, N-[1-[5-chloro-2-[2-(2-morpholinoethoxy)anilino]pyrimidin-4-yl]indol-5-yl]prop-2-enamide], the dissociation constant (Kd) on FGFR1, on FGFR3, at FGFR3 (V555M) and at FGFR2 was > 1000 nM each time.

On to `C=CC(=O)Nc1ccc2c(ccn2-c2nc(Nc3cn(C)nc3OCC)ncc2Cl)c1` [Example 14, N-[1-[5-chloro-2-[(3-ethoxy-1-methyl-pyrazol-4-yl)amino]pyrimidin-4-yl]indol-5-yl]prop-2-enamide], for which the Kd at FGFR1 is 250 to 1000 nM; on FGFR3, > 1000 nM; at FGFR3 (V555M) it was 100 to 250 nM; on FGFR2, > 1000 nM.

Turning to `C=CC(=O)Nc1ccc2c(ccn2-c2nc(Nc3ccc(N4CCOCC4)cc3)ncc2Cl)c1` [Example 15, N-[1-[5-chloro-2-(4-morpholinoanilino)pyrimidin-4-yl]indol-5-yl]prop-2-enamide], the Kd on FGFR1 was in the range of 100 to 250 nM; at FGFR3 it was 0.1 to 100 nM; on FGFR3 (V555M) it was 0.1 to 100 nM; at FGFR2 it was 0.1 to 100 nM.

In the case of `C=CC(=O)Nc1ccc2c(ccn2-c2nc(Nc3ccc(N4CCOCC4)c(F)c3)ncc2Cl)c1` [Example 16, N-[1-[5-chloro-2-(3-fluoro-4-morpholino-anilino)pyrimidin-4-yl]indol-5-yl]prop-2-enamide], the equilibrium dissociation constant (Kd) at FGFR1 was in the range of 250 to 1000 nM; at FGFR3, 0.1 to 100 nM; at FGFR3 (V555M), 0.1 to 100 nM; at FGFR2, 250 to 1000 nM.

With `C=CC(=O)Nc1ccc2c(ccn2-c2nc(Nc3ccc(N4CCOCC4)c(F)c3)ncc2Cl)c1C` [Example 17, N-[1-[5-chloro-2-(3-fluoro-4-morpholino-anilino)pyrimidin-4-yl]-4-methyl-indol-5-yl]prop-2-enamide], the Kd at FGFR1 lay in the range of 250 to 1000 nM; at FGFR3 it was 100 to 250 nM; on FGFR3 (V555M) it was 0.1 to 100 nM; on FGFR2 it was 250 to 1000 nM.

With `C=CC(=O)Nc1ccc2c(ccn2-c2nc(Nc3cnn(C)c3)ncc2Cl)c1C` [Example 18, N-[1-[5-chloro-2-[(1-methylpyrazol-4-yl)amino]pyrimidin-4-yl]-4-methyl-indol-5-yl]prop-2-enamide], the Kd at FGFR1 was 100 to 250 nM; on FGFR3, 100 to 250 nM; at FGFR3 (V555M), 0.1 to 100 nM; on FGFR2, 100 to 250 nM.

On to `C=CC(=O)Nc1ccc2c(ccn2-c2nc(Nc3ccccc3OCC)ncc2Cl)c1` [Example 20, N-[1-[5-chloro-2-(2-ethoxyanilino)pyrimidin-4-yl]indol-5-yl]prop-2-enamide], for which the Kd on FGFR1, on FGFR3, on FGFR3 (V555M) and at FGFR2 was > 1000 nM throughout.

As to `C=CC(=O)Nc1ccc2c(ccn2-c2nc(Nc3ccc(OCCN4CCOCC4)cc3)ncc2Cl)c1C` [Example 21, N-[1-[5-chloro-2-[4-(2-morpholinoethoxy)anilino]pyrimidin-4-yl]-4-methyl-indol-5-yl]prop-2-enamide], the Kd on FGFR1 is 250 to 1000 nM; at FGFR3 it was 100 to 250 nM; on FGFR3 (V555M), 0.1 to 100 nM; at FGFR2 it was 0.1 to 100 nM.

Regarding `C=CC(=O)Nc1ccc2c(c1)c(C)cn2-c1nc(Nc2c(C)cccc2OCC)ncc1Cl` [Example 29, N-[1-[5-chloro-2-(2-ethoxy-6-methyl-anilino)pyrimidin-4-yl]-3-methyl-indol-5-yl]prop-2-enamide], the equilibrium dissociation constant (Kd) on FGFR1, at FGFR3, at FGFR3 (V555M) and on FGFR2 was > 1000 nM throughout.

With `C=CC(=O)Nc1ccc2c(-c3nc(Nc4ccc(OC)c(OC)c4)ncc3Cl)cn(C)c2c1` [Example 31, N-[3-[5-chloro-2-(3,4-dimethoxyanilino)pyrimidin-4-yl]-1-methyl-indol-6-yl]prop-2-enamide], the dissociation constant Kd on FGFR1, at FGFR3, on FGFR3 (V555M) and on FGFR2 was 0.1 to 100 nM throughout.

As to `C=CC(=O)Nc1ccc2c(c1)c(C)cn2-c1nc(Nc2c(C)cccc2OCC)ncc1C#N` [Example 33, N-[1-[5-cyano-2-(2-ethoxy-6-methyl-anilino)pyrimidin-4-yl]-3-methyl-indol-5-yl]prop-2-enamide], the Kd at FGFR1, at FGFR3, at FGFR3 (V555M) and at FGFR2 was > 1000 nM each time.

On to `C=CC(=O)Nc1ccc2c(c1)c(C)cn2-c1nc(Nc2cn(C)nc2OC)ncc1C#N` [Example 37, N-[1-[5-cyano-2-[(3-methoxy-1-methyl-pyrazol-4-yl)amino]pyrimidin-4-yl]-3-methyl-indol-5-yl]prop-2-enamide], for which the dissociation constant Kd lay in the range of 100 to 250 nM on FGFR1, 100 to 250 nM on FGFR3, 0.1 to 100 nM at FGFR3 (V555M) and 0.1 to 100 nM on FGFR2.
